In PubChem BioAssay (NCI):
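GI50 = concentration required for 50% inhibition of growth. The concentration for full growth arrest is given as TGI.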

Legend:
Assay in all cases: NCI tumour cell line growth inhibition, 384-well format
[1] = system: MOLT-4 leukemia
[2] = system: NCI/ADR-RES ovarian
[3] = system: MCF7 breast
[4] = system: SR leukemia
[5] = system: EKVX NSCLC
[6] = system: COLO 205 colon
[7] = system: NCI-H226 lung
[8] = system: SW-620 colon
[9] = system: HCT-15 colon
[10] = system: HT29 colon
[11] = system: SNB-75 CNS
[12] = system: MALME-3M melanoma
[13] = system: UACC-62 melanoma

## COC1(C(=O)N2Cc3nc(Cl)nc(N[C@H](C)c4cc(N)cc(C(F)(F)F)c4)c3C2)CCOCC1
[1]
  GI50: 8.48 µM
  TGI: 21 µM
[2]
  GI50: 17.5 µM
  TGI: 51.8 µM
[3]
  GI50: 13.4 µM
  TGI: 30 µM
[4]
  GI50: 10.5 µM
  TGI: 22.4 µM
[5]
  GI50: 12.8 µM
  TGI: 38.8 µM
[6]
  GI50: 24 µM
  TGI: 56.9 µM
[7]
  GI50: 13.4 µM
  TGI: 31 µM
[8]
  GI50: 17.9 µM
  TGI: 40.2 µM
[9]
  GI50: 18.6 µM
  TGI: 38.9 µM
[10]
  GI50: 18.2 µM
  TGI: 35.9 µM
[11]
  GI50: 10.7 µM
  TGI: 23.5 µM
[12]
  GI50: 16.2 µM
  TGI: 34.3 µM
[13]
  GI50: 15.6 µM
  TGI: 29.1 µM
